Assay results as given in article doi:10.1101/2021.06.27.450110v1 (bioRxiv, 2021).
Where a SMILES comes first, the peptide text is derived from it. Bridges are numbered along the chain shown (N, C = ends).

What was measured:
red blood cells (RBCs) = assay: Red blood cell hemolysis assay; assay type: cell-based, human; conditions: for fold less hemolytic than native tachyplesin I and polyphemusin I: from RBC CC50; for lysis of RBCs: incubation with 128 µM peptide, 37 °C, 1 h
BMMs = assay: Flow cytometry to measure peptide internalization; assay type: cell-based, mouse; conditions: Alexa Fluor 488-labelled peptides, 1 h
BMMs infected with EC958 = assay: Microscopy to determine location of peptides inside infected BMMs; assay type: cell-based, mouse; conditions: 8 µM A488-labelled peptide, 1 h, fixed cells, confocal microscopy
[1] = system: Burkholderia pseudomallei strains MSHR1364, MSHR2154 and MSHR10517; conditions: 24 h
EC958ΔzntA = assay: Co-treatment of planktonic bacteria with peptides and zinc; assay type: cell-based, Escherichia coli; conditions: 0.1 mM zinc
EC958 WT = assay: as above; assay type: cell-based, Escherichia coli; conditions: 0.1 mM zinc

CC(C)[C@@H]1NC(=O)[C@H](CCCNC(=N)N)NC(=O)[C@H](Cc2ccccc2)NC(=O)[C@@H](NC(=O)[C@H](Cc2c[nH]c3ccccc23)NC(=O)[C@@H](N)CCCCN)CSSC[C@@H](C(=O)N[C@@H](CCCNC(=N)N)C(N)=O)NC(=O)[C@H](CCCNC(=N)N)NC(=O)[C@H](CCCNC(=N)N)NC(=O)[C@H](Cc2ccc(O)cc2)NC(=O)[C@@H]2CSSC[C@H](NC1=O)C(=O)N[C@@H](Cc1ccc(O)cc1)C(=O)N[C@@H](CCCNC(=N)N)C(=O)NCC(=O)N[C@@H](C)C(=O)N2 [[I11A]tachyplesin I] (H-KWCFRVCYRGACYRRCR-NH2; disulfide 3-16, 7-12)
fold less hemolytic than native tachyplesin I and polyphemusin I (red blood cells (RBCs)): at least 3 fold
lysis of RBCs (red blood cells (RBCs)): < 50%
concentration required to internalize 50% of cells compared to tachyplesin I (BMMs): > ten-fold lower concentrations
intracellular localization in BMMs infected with EC958 (BMMs infected with EC958): locates mainly within vesicles

CC(C)[C@@H]1NC(=O)[C@H](CCCNC(=N)N)NC(=O)[C@H](Cc2ccccc2)NC(=O)[C@@H](NC(=O)[C@H](Cc2c[nH]c3ccccc23)NC(=O)[C@H](CCCNC(=N)N)NC(=O)[C@@H](N)CCCNC(=N)N)CSSC[C@@H](C(=O)N[C@@H](CCCNC(=N)N)C(N)=O)NC(=O)[C@H](CCCCN)NC(=O)[C@H](CCCNC(=N)N)NC(=O)[C@H](Cc2ccc(O)cc2)NC(=O)[C@@H]2CSSC[C@H](NC1=O)C(=O)N[C@@H](Cc1ccc(O)cc1)C(=O)N[C@@H](CCCNC(=N)N)C(=O)NCC(=O)N[C@@H](Cc1ccccc1)C(=O)N2 [Polyphemusin-I] (H-RRWCFRVCYRGFCYRKCR-NH2; disulfide 4-17, 8-13)
Antimicrobial activity: MIC, Burkholderia pseudomallei [1]: > 64 µM

O=S(=O)([O-])[O-].[Zn+2] [zinc, zinc sulfate]
growth of EC958ΔzntA with zinc alone (EC958ΔzntA): does not significantly inhibit
growth of EC958 WT with zinc alone (EC958 WT): does not significantly inhibit

CC[C@H](C)[C@@H]1NC(=O)CNC(=O)[C@H](CCCNC(=N)N)NC(=O)[C@H](Cc2ccc(O)cc2)NC(=O)[C@@H]2CSSC[C@H](NC1=O)C(=O)N[C@@H](Cc1ccc(O)cc1)C(=O)N[C@@H](CCCNC(=N)N)C(=O)N[C@@H](CCCNC(=N)N)C(=O)N[C@H](C(=O)N[C@@H](CCCNC(=N)N)C(N)=O)CSSC[C@H](NC(=O)[C@H](Cc1c[nH]c3ccccc13)NC(=O)[C@@H](N)CCCCN)C(=O)N[C@@H](Cc1ccccc1)C(=O)N[C@@H](CCCNC(=N)N)C(=O)N[C@@H](C(C)C)C(=O)N2 [Tachyplesin I] (H-KWCFRVCYRGICYRRCR-NH2; disulfide 3-16, 7-12)
Antimicrobial activity: MIC, Burkholderia pseudomallei [1]: > 64 µM

CC(C)C[C@H](NC(=O)[C@H](CCCNC(=N)N)NC(=O)CNC(=O)CNC(=O)[C@@H](N)CCCNC(=N)N)C(=O)N[C@H]1CSSC[C@@H](C(=O)N[C@H](C(=O)NCC(=O)N[C@@H](CCCNC(=N)N)C(N)=O)C(C)C)NC(=O)[C@H](C(C)C)NC(=O)[C@@H]2CSSC[C@H](NC(=O)[C@H](Cc3ccc(O)cc3)NC1=O)C(=O)N[C@@H](CCCNC(=N)N)C(=O)N[C@@H](CCCNC(=N)N)C(=O)N[C@@H](CCCNC(=N)N)C(=O)N[C@@H](Cc1ccccc1)C(=O)N2 [Protegrin-I]
Antimicrobial activity: MIC, Burkholderia pseudomallei [1]: > 64 µM

CC(C)[C@@H]1NC(=O)[C@H](CCCNC(=N)N)NC(=O)[C@H](Cc2ccccc2)NC(=O)[C@@H](NC(=O)[C@H](Cc2c[nH]c3ccccc23)NC(=O)[C@@H](N)CCCCN)CSSC[C@@H](C(=O)N[C@@H](CCCNC(=N)N)C(N)=O)NC(=O)[C@H](CCCNC(=N)N)NC(=O)[C@H](CCCNC(=N)N)NC(=O)[C@H](Cc2ccc(O)cc2)NC(=O)[C@@H]2CSSC[C@H](NC1=O)C(=O)N[C@@H](Cc1ccc(O)cc1)C(=O)N[C@@H](CCCNC(=N)N)C(=O)NCC(=O)N[C@@H](CO)C(=O)N2 [[I11S]tachyplesin I] (H-KWCFRVCYRGSCYRRCR-NH2; disulfide 3-16, 7-12)
fold less hemolytic than native tachyplesin I and polyphemusin I (red blood cells (RBCs)): at least 3 fold
lysis of RBCs (red blood cells (RBCs)): < 50%
concentration required to internalize 50% of cells compared to tachyplesin I (BMMs): > ten-fold lower concentrations
